Test [1] deals with T1, α-amylase (Sus scrofa, UniProt P00690).
T1 sequence (P00690 16-511): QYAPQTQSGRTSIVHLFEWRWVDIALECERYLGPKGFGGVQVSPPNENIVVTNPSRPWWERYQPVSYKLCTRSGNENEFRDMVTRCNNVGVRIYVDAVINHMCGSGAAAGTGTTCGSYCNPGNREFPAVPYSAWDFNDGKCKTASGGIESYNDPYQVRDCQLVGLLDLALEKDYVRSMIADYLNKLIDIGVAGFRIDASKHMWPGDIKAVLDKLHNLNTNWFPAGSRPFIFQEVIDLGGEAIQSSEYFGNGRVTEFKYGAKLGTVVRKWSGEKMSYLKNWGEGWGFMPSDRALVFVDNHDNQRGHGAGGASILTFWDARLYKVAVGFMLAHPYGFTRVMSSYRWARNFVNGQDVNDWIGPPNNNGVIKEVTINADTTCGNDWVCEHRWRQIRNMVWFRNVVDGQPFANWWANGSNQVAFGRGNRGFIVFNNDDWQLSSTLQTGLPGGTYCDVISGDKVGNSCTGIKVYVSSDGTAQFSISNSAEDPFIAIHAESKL
The test is described as follows: α-amylase inhibition (anti-diabetic). The class given is biochemical. Conditions: at 100 µg/mL; mean ± SE, n = 3. The method, then:
3.3. Anti-diabetic activity […]
tetrahydrate in 8.0 mL of 2 M NaOH and 20 mL of 96 mM of DNSA solution). The […]
(§1) The absorbance was measured at 540 nm using a UV-Visible spectrophotometer. The IC50 of each tested sample was calculated by plotting a curve using a series of sample concentrations against the percent of α-amylase inhibition.
(§2) The inhibition percentage (%) of the α-glucosidase enzyme was determined using the […]
(§3) standard drug. Five μL of the α-glucosidase solution (10 units mL−1, 0.1moll−1 potassium phosphate buffer, pH 6.8) was pre -mixed with 10 μL of the sample solution at different concentrations (in 10% DMSO) i n 620 μL of 0.1 moll−1 potassium […]
(§4) phosphate buffer (pH 6.8). […]
(§5) phenyl glucopyranoside (pNPG, 10 mmoll−1) as a substrate was added to the mixture […]
(§6) minutes, followed by the addition of 650 μL of 1 moll−1 Na2CO3 solution to terminate the reaction. The amount of released product (p-nitro phenol) was measured at 410 […]
activity. […] The IC50 of each tested sample was calculated by plotting a curve using a series of sample concentrations against the percent of α-glucosidase inhibition. […]
(§7) In this study, we assessed the inhibition percentage of the acetylcholinesterase (AChE) enzyme using Ellman's method with donepezil as the standard drug. […] After incubation, 5 µL of AChE at a concentration of 0.3 U/mL was added to start the reaction, and the absorbance […]

Test [2] deals with α-glucosidase (Saccharomyces cerevisiae, UniProt P53341). The class given is biochemical. The method, then: as §1, §2, §3, §4, §5, §6
activity. The inhibition assay was performed in triplicate for all tests. The IC50 of each tested sample was calculated by plotting a curve using a series of sample concentrations against the percent of α-glucosidase inhibition.
3.4. Anti-Alzheimer's activity
as §7

Sequence of α-glucosidase (P53341 whole entry): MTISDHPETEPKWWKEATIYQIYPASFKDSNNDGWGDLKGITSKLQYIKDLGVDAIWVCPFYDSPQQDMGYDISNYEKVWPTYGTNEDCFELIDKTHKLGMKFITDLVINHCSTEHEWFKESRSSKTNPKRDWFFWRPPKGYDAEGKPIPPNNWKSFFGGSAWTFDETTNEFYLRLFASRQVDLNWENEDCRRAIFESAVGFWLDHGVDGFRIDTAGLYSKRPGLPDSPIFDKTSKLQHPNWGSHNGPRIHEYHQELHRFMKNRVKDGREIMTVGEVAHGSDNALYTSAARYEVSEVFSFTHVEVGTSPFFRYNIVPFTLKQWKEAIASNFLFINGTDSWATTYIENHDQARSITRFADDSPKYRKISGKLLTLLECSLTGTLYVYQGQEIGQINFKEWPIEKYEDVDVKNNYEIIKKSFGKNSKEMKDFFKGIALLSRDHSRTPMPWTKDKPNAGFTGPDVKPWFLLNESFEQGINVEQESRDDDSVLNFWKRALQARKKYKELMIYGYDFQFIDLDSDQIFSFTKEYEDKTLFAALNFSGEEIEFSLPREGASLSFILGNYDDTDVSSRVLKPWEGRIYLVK

With `C[C@H]1O[C@H](O[C@H]2[C@H](O)[C@@H](O)[C@@H](O[C@H]3[C@H](O)[C@@H](O)C(O)O[C@@H]3CO)O[C@@H]2CO)[C@H](O)[C@@H](O)[C@@H]1N[C@H]1C=C(CO)[C@@H](O)[C@H](O)[C@H]1O` (some centres unmarked) [Acarbose], the “α-Amylase Inhib. (%)” value in test [1] was determined as 54.96 ± 0.10 Acarbose %. For the same compound, the “α-Glucosidase Inhib. (%)” value in test [2] was 44.71 ± 0.10 Acarbose %.

(Values after article PMC11859031, “Assessment of the In Vitro Biological Activities of Schiff Base-Synthesized Copper Oxide Nanoparticles as an Anti-Diabetic, Anti-Alzheimer, and Anti-Cancer Agent” (Pharmaceutics, 2025).)
